Test results reported in US5919940A, “Metalloproteinase inhibitors” (British Biotech Pharmaceuticals Limited, priority 1998, dated 1999).
Read-outs that look alike come from different tables or passages of the source.

Assays:
stromelysin [1] = target: T1, stromelysin (Homo sapiens, UniProt P08254); details: read-out: In vitro inhibitory activity IC50, Stromelsin; 14C acetylated casein, 37°, 16 hours, pH 7.5
Text: (§1) The casein was acetylated ^14 C casein prepared by the method of Cawston et al (ibid).

Collagenase = test: Inhibition of collagenase (acetylated 14C collagen hydrolysis; Cawston and Barrett); type: biochemical; details: 37°, 16 hours, pH 7.5, read-out: In vitro inhibitory activity IC50, Collagenase
Text: The samples were centrifuged to sediment undigested collagen, and an aliquot of the radioactive supernatant removed for assay on a scintillation counter as a measure of hydrolysis.

72 kDa Gelatinase = target: T2, 72 kDa Gelatinase (Homo sapiens, UniProt P08253); test: Inhibition of 72 kDa gelatinase (14C-radiolabelled gelatin; Sellers et al); type: biochemical
T2 construct: endogenous in cells; host or cells: RPMI-7951 cells
T2 sequence (P08253 110-660): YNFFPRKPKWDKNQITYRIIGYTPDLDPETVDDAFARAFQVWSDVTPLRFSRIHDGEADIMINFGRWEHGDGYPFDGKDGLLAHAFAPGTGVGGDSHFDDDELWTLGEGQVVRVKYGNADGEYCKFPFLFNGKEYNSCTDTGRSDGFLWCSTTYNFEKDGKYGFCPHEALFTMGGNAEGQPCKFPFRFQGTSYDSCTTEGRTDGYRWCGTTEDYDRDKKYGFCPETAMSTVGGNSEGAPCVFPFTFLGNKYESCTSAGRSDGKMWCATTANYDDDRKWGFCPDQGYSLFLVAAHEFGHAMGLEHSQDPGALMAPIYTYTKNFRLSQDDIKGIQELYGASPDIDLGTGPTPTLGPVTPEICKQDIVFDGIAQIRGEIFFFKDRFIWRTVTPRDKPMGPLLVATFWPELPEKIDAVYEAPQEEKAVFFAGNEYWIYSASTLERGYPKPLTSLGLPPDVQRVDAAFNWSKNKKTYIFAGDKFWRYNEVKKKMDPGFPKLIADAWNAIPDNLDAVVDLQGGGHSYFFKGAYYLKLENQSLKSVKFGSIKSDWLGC

stromelysin [2] = target: T1, stromelysin; test: biochemical
Text: as §1

[3] = enzyme from RPMI-7951 cells, 14C gelatin, 37° C., 16 hours, read-out: In vitro inhibitory activity IC50, 72 kDa Gelatinase

T1 sequence (P08254 100-477): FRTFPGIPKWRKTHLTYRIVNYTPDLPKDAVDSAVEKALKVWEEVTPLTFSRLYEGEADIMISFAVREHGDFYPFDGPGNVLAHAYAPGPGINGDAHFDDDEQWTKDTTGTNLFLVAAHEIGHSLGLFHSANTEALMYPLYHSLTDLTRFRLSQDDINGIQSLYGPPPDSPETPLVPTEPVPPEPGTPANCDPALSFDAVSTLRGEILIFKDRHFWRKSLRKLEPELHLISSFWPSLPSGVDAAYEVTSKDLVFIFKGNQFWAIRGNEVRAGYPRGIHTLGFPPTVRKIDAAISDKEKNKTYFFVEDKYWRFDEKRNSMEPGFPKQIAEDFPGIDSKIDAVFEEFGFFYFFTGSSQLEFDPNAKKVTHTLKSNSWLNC

SMILES | IC50 (stromelysin [1]) [nM] | IC50 (Collagenase) [nM] | IC50 (72 kDa Gelatinase; [3]) [nM] | IC50 (stromelysin [2]) [nM] | IC50 (72 kDa Gelatinase) [nM]
CC(C)C[C@H](CC(=O)NO)C(=O)N[C@@H](Cc1ccccc1)C(=O)Nc1ccccc1 [Example 1, 5-Methyl-3R-(2-phenyl-1S-phenylcarbamoylethylcarbamoyl)-hexanohydroxamic acid] | 10 | 20 | 60 | – | –
CC(C)C[C@@H](C(=O)N[C@H](C(=O)Nc1ccccn1)C(C)(C)C)[C@H](O)C(=O)NO [Example 8, 3R-(2,2-Dimethyl-1S-pyridin-2-ylcarbamoyl-propylcarbamoyl)-2S-hydroxy-5-methylhexanohydroxamic acid] | – | 6 | 15 | 30 | –
COc1ccc(NC(=O)[C@H](Cc2ccccc2)NC(=O)[C@H](CC(C)C)[C@H](O)C(=O)NO)cc1 [Example 6] | – | 30 | 8 | 3 | –
CNC(=O)[C@H](Cc1ccccc1)NC(=O)[C@H](CC(C)C)[C@H](O)C(=O)NO [Comparator 4, 2S-Hydroxy-3R-(1S-methylcarbamoyl-2-phenylethylcarbamoyl)-5-methylhexanohydroxamic acid, reference compound] | – | 15 | 3 | 200 | –
CNC(=O)[C@H](Cc1ccccc1)NC(=O)[C@@H](CC(=O)NO)CC(C)C [Comparator 1, 5-Methyl-3R-(1S-methylcarbamoyl-2-phenylethylcarbamoyl)hexanohydroxamic acid, reference compound] | – | 15 | – | – | –
CNC(=O)[C@H](CC(C)C)NC(=O)[C@H](CC(C)C)[C@H](O)C(=O)NO [Comparator 5, 2S-Hydroxy-3R-(1S-methylcarbamoyl-3-methyl-butylcarbamoyl)-5methylhexanohydroxamic acid, reference compound] | – | 8 | – | 90 | –
CC(C)C[C@H](CC(=O)NO)C(=O)N[C@H](C(=O)Nc1ccccc1)C(C)(C)C [Example 2, 3R-(2,2-Dimethyl-1S-phenylcarbamoyl-propylcarbamoyl)-5-methyl-hexanohydroxamic acid] | – | 30 | 30 | 15 | –
CC(C)C[C@H](CC(=O)NO)C(=O)N[C@H](C(=O)Nc1ccccn1)C(C)(C)C [Example 3, 3R-(2,2-Dimethyl-1S-pyridin-2-ylcarbamoyl-propylcarbamoyl)-5-methyl-hexanohydroxamic acid] | – | 40 | 30 | 150 | –
CC(C)C[C@@H](C(=O)N[C@H](C(=O)Nc1ccccc1)C(C)(C)C)[C@H](O)C(=O)NO [Example 4, 3R-(2,2-Dimethyl-1S-phenylcarbamoyl-propylcarbamoyl)-2S-hydroxy-5-methylhexanohydroxamic acid] | – | 2 | 5 | 9 | –
CC(C)C[C@H](NC(=O)[C@H](CC(C)C)[C@H](O)C(=O)NO)C(=O)Nc1ccc2ccccc2c1 [Example 5, 2S-Hydroxy-3R-(3-methyl-1S-napth-2-ylcarbamoyl-butylcarbamoyl)-5-methylhexanohydroxamic acid] | – | 30 | 6 | 5 | –
Cc1nc(NC(=O)[C@@H](NC(=O)[C@H](CC(C)C)[C@H](O)C(=O)NO)C(C)(C)C)sc1C [Example 17, 3R-(2,2-Dimethyl-1S-(4,5-dimethylthiazol-2-ylcarbamoyl)-propylcarbamoyl)-2S-hydroxy-5-methylhexanohydroxamic acid] | – | 2 | 30 | 20 | –
CNC(=O)[C@@H](NC(=O)[C@@H](CC(=O)NO)CC(C)C)C(C)(C)C [Comparator 3, 3R-(2,2-Dimethyl-1S-methylcarbamoyl-propylcarbamoyl)-5-methylhexanohydroxamic acid, reference compound] | – | 10 | – | 700 | 8
